# From US20110176998A1, “IMAGING AND THERAPY OF VIRUS-ASSOCIATED TUMORS” (THE JOHNS HOPKINS UNIVERSITY, priority 2007, published 2011)
# Several values for one entry are separate records, joined by “and”; a condition that tells them apart may be missing. Identical values can stand only once.
# Columns and labels:
# [1] = tested on: EBV(+) Burkitt's lymphoma xenografts (Akata); assay: [125I]FIAU imaging and ex vivo biodistribution, EBV(+) Akata xenografts; assay type: in vivo, SCID mice; settings: for % ID/g derived from SPECT-CT images, tumor: bortezomib 2 μg/g, one mouse, SD from slices; for % ID/g ± SD, Blood / % ID/g ± SD, Kidney / % ID/g ± SD, Liver / % ID/g ± SD, Muscle / % ID/g ± SD, Spleen / % ID/g ± SD, Tumor: n = 4
# Description: 5×10^6 cells were resuspended in 200 μL Matrigel Matrix (ED Biosciences, Bedford, Mass.) and injected subcutaneously near the shoulder of 6-7-week-old male severe combined immunodeficient (SCID) mice.
# All work was undertaken in accordance with the regulations of Johns Hopkins Animal Care and Use Committee. Adult male SCID mice (5-6 weeks old) were purchased from the National Cancer Institute (Frederick, Md.). Three days before imaging, all mice received 1 mL intraperitoneal (i.p.) injections of 0.9% NaI solution daily for 3 consecutive days to block the thyroid uptake of free radioiodide. Twenty four hours prior to [^125I]FIAU injection, lytic induction was initiated with bortezomib. Each mouse was injected i.p. with a dose of 2 μg/g of bortezomib. Bortezomib was made fresh in PBS and filter sterilized with a 0.2 μm syringe filter (Millipore, Billerica, Mass.) immediately before each injection. Control mice were injected i.p. with PBS alone. On the day of radiotracer injection, the animals were anesthetized with 2.3 mL/kg of a mixture of 25 mg/mL ketamine and 2 mg/mL acepromazine in 0.9% saline injected i.p. Isoflurane (0.5%-1% at 0.5-1 L/minute) was administered to maintain anesthesia.
# Four mice were sacrificed at each indicated time by cervical dislocation. Tumor, liver, spleen, kidney, fat, blood, and muscle were removed and weighed after which the tissue radioactivity was measured using an automated gamma counter. A 0.1 mL sample of blood was also collected. […] The standard deviation (SD) was also calculated.
# (§1) Quantitative data were not derived from the images except for once instance that employed SPECT-CT (see below). […] The detector material or scintillator crystal is composed of NaI[Tl], which has a pixel size 2 mm×2 mm×6 mm. […] The static acquisition protocol of the LumaGEM™ software provided with the X-SPECT was used.
# [2] = tested on: Rael Burkitt's lymphoma (EBV); assay: [125I]FIAU imaging and tissue distribution, Rael xenografts; assay type: in vivo, SCID mice
# Description: Bortezomib was always administered 24 hours before [^125I]FIAU, also intravenously. […] 2 μg/g of bortezomib stimulated the maximum target to non-target signal ratio at 96 hours after treatment in this cell line. The radioactivity depicted by the arrow in FIG. 14B at the 96 hour time point was within the tumor as shown by concurrent ex vivo gamma counting. Similar results were obtained in animals bearing another EBV(+) Burkitt cell line (Rael) xenograft. […] The percentage of injected dose per gram (% ID/g) derived from the images was 1.13±0.01 and 0.70±0.01 at 72 and 96 hours, respectively. Only one mouse was imaged with SPECT-CT, so the standard deviation (SD) values were derived from the multiple slices of each image.
# [3] = tested on: EBV(−) osteosarcoma xenografts (V143b); assay: [125I]FIAU imaging, V143b control tumors; assay type: in vivo, mice; settings: with or without bortezomib
# From the text: as §1
# BC3 lymphoma (KSHV) = assay: [125I]FIAU imaging and tissue distribution, BC3 xenograft; assay type: in vivo, SCID mice
# From the text: (§2) The approach observed in EBV-associated tumors is also applicable to other KSHV-associated tumors as shown in studies on two primary effusion lymphoma (PEL) cell lines that harbor KSHV. […] Finally, when induction with bortezomib was followed by treatment with [^131I]FIAU tumors regressed (FIG. 19C).
# BCBL1 lymphoma (KSHV) = assay: [125I]FIAU imaging and tissue distribution, BCBL1 xenograft; assay type: in vivo, SCID mice
# From the text: as §2
# KT gastric cancer (EBV) = assay: [125I]FIAU imaging and tissue distribution, KT xenograft
# [4] = tested on: TK143b osteosarcoma (constitutive EBV TK); assay: [125I]FIAU imaging and tissue distribution, TK143b tumors
# [5] = tested on: human osteosarcoma 143B cells expressing EBV TK; assay: tumor growth, EBV-TK expressing 143B tumors; assay type: in vivo, mice
# Description: To determine whether EBV-TK mediated concentration of radioisotope in tumor tissue was adequate to achieve a therapeutic effect, mice with tumors were treated with [^131I]FIAU or buffered saline (FIG. 18A-18C).
# (§3) Biostatistics. Linear regression and curve fitting were undertaken carried using GraphPad Prism software version 5.00 for Windows, GraphPad Software, San Diego Calif. USA, www.graphpad.com.
# [6] = tested on: EBV(+) Burkitt's lymphoma (Rael); assay: tumor growth, EBV(+) Burkitt's lymphoma (Rael) xenografts; assay type: in vivo, SCID mice
# Description: (§4) Therefore, an evaluation of a therapeutic isotope was carried out. As described above, SCID mice engrafted with EBV Burkitt's lymphoma xenografts received either buffer or bortezomib followed the next day by treatment with [^131I]FIAU or no treatment. […] Thus, bortezomib allowed targeting of [^131I]FIAU with therapeutic effect. Other proteasome inhibitors are also likely to be active. Several are in clinical trial.
# as §3
# [7] = tested on: EBV(+) Burkitt's lymphoma cell line (Akata); assay: tumor growth, EBV(+) Burkitt's lymphoma (Akata) xenografts; assay type: in vivo, SCID mice; settings: bortezomib followed by [131I]FIAU; second cell line
# Description: as §4
# [8] = tested on: KSHV(+) primary effusion lymphoma (BCBL1); assay: tumor growth, KSHV(+) primary effusion lymphoma (BCBL1) xenograft; assay type: in vivo, SCID mice; settings: bortezomib induction followed by [131I]FIAU
# From the text: as §2
# [9] = scale-up of mouse biodistribution data to the human, MIRD dosimetry (OLINDA)
# From the text: Murine biodistribution data were converted to equivalent human data for dosimetry by assuming that the organ or tumor to whole-body concentration ratio in the mouse is equivalent to that in the human.
# The initial (i.e., 2-h) activity concentration in the mouse tumor of 1.95% ID/g becomes 7×10^−4% ID/g, assuming a 1 gm tumor in the human. At this concentration, and assuming negligible biological clearance of ^131I, as shown in the biodistribution data, the absorbed dose per administered activity to a 1 gm tumor in a 70 kg human is 0.1 mGy/MBq (0.38 rad/mCi). […] The 5 to 20 GBq (135 to 540 mCi) required to deliver this dose-range is well within normal organ tolerance given the normal organ absorbed dose estimates listed in the table. A total administered activity of 20 GBq would result in 0.2 and 0.02 Gy to the kidneys and red marrow, respectively. Based on external beam and radiopeptide experience, the kidneys can tolerate 25 to 27 Gy before the onset of toxicity; the red marrow maximally tolerated dose is 2 Gy. Administration of a 540 mCi dose would likely present logistical problems, but these could be accommodated by fractioning the administration over three to four injections.
# [10] = tested on: EBV(+) gastric adenocarcinoma (KT); assay: tumor growth, EBV(+) gastric adenocarcinoma (KT) xenograft; settings: bortezomib induction followed by [131I]FIAU
# Description: Bortezomib was administered intravenously at 1.67 μg/gram. […] For imaging or treatment, FIAU was administered 24 hours after bortezomib. In each of the experiments described bortezomib was administered as a single dose.
# [11] = Rael, bortezomib induction, 4 days p.i., 5 μCi, N 4
# [12] = bortezomib induction, 5 days p.i., 5 μCi, N 3
# [13] = bortezomib induction, 4 days p.i., 5 μCi, N 5
# [14] = KT, bortezomib induction, 4 days p.i., 5 μCi, N 3
# [15] = TK143b, constitutive EBV TK, 4 days p.i., 5 μCi, N 3
# [16] = total administered activity of 20 GBq
structure (smiles),measurement,setting,value
"O=c1[nH]c(=O)n([C@@H]2O[C@H](CO)[C@@H](O)[C@@H]2F)cc1[125I] [[^125I]FIAU, [^125I]2-fluoro-2′-deoxy-beta-D-5-iodouracil-arabinofuranoside]","% ID/g derived from SPECT-CT images, tumor",[1]; 72 hours after radiopharmaceutical,1.13±0.01 % ID/g
same,increase of tumor uptake over baseline after bortezomib,"[1]; 96 h, bortezomib vs PBS",~22 fold
same,"% ID/g derived from SPECT-CT images, tumor",[1]; 96 hours after radiopharmaceutical,0.70±0.01 % ID/g
same,"% ID/g ± SD, Blood","[1]; Bortezomib treatment, 96 h",0.022 ± 0.010 % ID/g
same,"% ID/g ± SD, Kidney","[1]; Bortezomib treatment, 96 h",0.070 ± 0.010 % ID/g
same,"% ID/g ± SD, Liver","[1]; Bortezomib treatment, 96 h",0.016 ± 0.002 % ID/g
same,"% ID/g ± SD, Muscle","[1]; Bortezomib treatment, 96 h",0.040 ± 0.005 % ID/g
same,"% ID/g ± SD, Spleen","[1]; Bortezomib treatment, 96 h",0.060 ± 0.011 % ID/g
same,"% ID/g ± SD, Tumor","[1]; Bortezomib treatment, 96 h",0.85 % ID/g and 0.850 ± 0.102 % ID/g
same,"% ID/g ± SD, Blood","[1]; PBS treatment, 96 h",0.033 ± 0.009 % ID/g
same,"% ID/g ± SD, Kidney","[1]; PBS treatment, 96 h",0.068 ± 0.014 % ID/g
same,"% ID/g ± SD, Liver","[1]; PBS treatment, 96 h",0.029 ± 0.011 % ID/g
same,"% ID/g ± SD, Muscle","[1]; PBS treatment, 96 h",0.030 ± 0.010 % ID/g
same,"% ID/g ± SD, Spleen","[1]; PBS treatment, 96 h",0.014 ± 0.006 % ID/g
same,"% ID/g ± SD, Tumor","[1]; PBS treatment, 96 h",0.039 % ID/g and 0.039 ± 0.010 % ID/g
same,"tumor visualization, planar gamma imaging","[1]; bortezomib 2 μg/g 24 hours before, 4 days postinjection",clearly visible
same,time of peak tumor uptake,"[1]; postinjection, pretreated with bortezomib",96 h
same,"tumor uptake, planar gamma imaging",[1]; pretreated with PBS only,no tumor uptake was evident
same,"% ID/g ± SD, Kidney",[2]; [11],0.146 ± .054 % ID/g
same,"% ID/g ± SD, Liver",[2]; [11],0.052 ± .027 % ID/g
same,"% ID/g ± SD, Muscle",[2]; [11],0.084 ± .012 % ID/g
same,"% ID/g ± SD, Spleen",[2]; [11],0.064 ± .011 % ID/g
same,"% ID/g ± SD, Tumor",[2]; [11],1.200 ± 0.356 % ID/g
same,tumor visualization,"[2]; following bortezomib, by 30 hours after radiopharmaceutical injection",clearly visualized
same,tumor uptake on imaging,[3],No tumor uptake was evident
same,tumor imaging,BC3 lymphoma (KSHV); after bortezomib,allowed imaging
same,"% ID/g ± SD, Kidney",BC3 lymphoma (KSHV); [12],0.027 ± 0.003 % ID/g
same,"% ID/g ± SD, Liver",BC3 lymphoma (KSHV); [12],0.009 ± 0.002 % ID/g
same,"% ID/g ± SD, Muscle",BC3 lymphoma (KSHV); [12],0.008 ± 0.004 % ID/g
same,"% ID/g ± SD, Spleen",BC3 lymphoma (KSHV); [12],0.008 ± 0.002 % ID/g
same,"% ID/g ± SD, Tumor",BC3 lymphoma (KSHV); [12],1.213 ± 0.214 % ID/g
same,"range of uptake as % ID/g (color bar), SPECT-CT","BCBL1 lymphoma (KSHV); 48 hours p.i., following bortezomib",1.53 % ID/g
same,tumor imaging,BCBL1 lymphoma (KSHV); after bortezomib,allowed imaging
same,"% ID/g ± SD, Kidney",BCBL1 lymphoma (KSHV); [13],0.167 ± 0.038 % ID/g
same,"% ID/g ± SD, Liver",BCBL1 lymphoma (KSHV); [13],0.0617 ± 0.022 % ID/g
same,"% ID/g ± SD, Muscle",BCBL1 lymphoma (KSHV); [13],0.078 ± 0.005 % ID/g
same,"% ID/g ± SD, Spleen",BCBL1 lymphoma (KSHV); [13],0.064 ± 0.014 % ID/g
same,"% ID/g ± SD, Tumor",BCBL1 lymphoma (KSHV); [13],1.100 ± 0.361 % ID/g
same,"range of uptake as % ID/g (color bar), SPECT-CT","KT gastric cancer (EBV); KT tumor, 72 hours p.i., following bortezomib",0.68 % ID/g
same,"% ID/g ± SD, Kidney",KT gastric cancer (EBV); [14],0.090 ± 0.030 % ID/g
same,"% ID/g ± SD, Liver",KT gastric cancer (EBV); [14],0.050 ± 0.017 % ID/g
same,"% ID/g ± SD, Muscle",KT gastric cancer (EBV); [14],0.080 ± 0.062 % ID/g
same,"% ID/g ± SD, Spleen",KT gastric cancer (EBV); [14],0.080 ± 0.035 % ID/g
same,"% ID/g ± SD, Tumor",KT gastric cancer (EBV); [14],0.598 ± 0.472 % ID/g
same,initial activity concentration in the mouse tumor,[4]; 2-h,1.95 % ID/g
same,tumor to muscle ratio,[4]; 2 hours post-infusion,4.6
same,tumor to muscle ratio,[4]; 24 hours post-infusion (peak),205
same,tumor to muscle ratio,[4]; 96 hours post-infusion,114
same,"% ID/g ± SD, Kidney",[4]; [15],0.033 ± 0.058 % ID/g
same,"% ID/g ± SD, Liver",[4]; [15],0.013 ± 0.006 % ID/g
same,"% ID/g ± SD, Muscle",[4]; [15],0.015 ± 0.014 % ID/g
same,"% ID/g ± SD, Spleen",[4]; [15],0.027 ± 0.015 % ID/g
same,"% ID/g ± SD, Tumor",[4]; [15],1.667 ± 0.681 % ID/g
same,tumor imaging,[4]; cell line engineered to express constitutively the EBV-TK,readily imaged
same,radioactivity levels in the tumor,[4]; from 2 hours until last time point at 96 hours,remained constant
O=c1[nH]c(=O)n([C@@H]2O[C@H](CO)[C@@H](O)[C@@H]2F)cc1[131I] [[^131I]FIAU],tumor growth rate in chimeric tumors,"[5]; 10% of tumor cells harbor the EBV-TK, 1.7 mCi",substantially slowed
same,tumor growth dose response,"[5]; EBV-TK expressing tumors, 1 mCi or 3 mCi",increasing effects on tumor growth
same,tumor growth slope,"[5]; TK tumors, 1.6 mCi IV",flattened
same,tumor growth,[6]; bortezomib followed 24 hours later by [131I]FIAU,stopped tumor growth
same,tumor growth curves vs buffer alone,[6]; buffer followed by [131I]FIAU,similar
same,tumor growth,[7],parallel results
same,tumor growth,[8],regressed
same,tumor activity concentration scaled to the human,[9]; assuming a 1 gm tumor in the human,7×10^−4 % ID/g
same,absorbed dose to the kidneys,[9]; [16],0.2 Gy
same,absorbed dose to the red marrow,[9]; [16],0.02 Gy
same,tumor growth rate,[10],diminished
